From paper PMC3164901 (European journal of medicinal chemistry, 2011)
Counter-ions that a name gives are not always drawn. Values belong to the compound of their own block, whether it stands above or below them.

Columns and labels:
rats [1] = conditions: ref [8]; cited from earlier work
rat = conditions: ref [23]; cited from earlier work
[2] = ref [24]; cited from earlier work
rats [3] = conditions: ref [8], cited from earlier work
recombinant human PED10A = recombinant human PED10A (Homo sapiens, UniProt Q9Y233); assay: PDE10A enzyme assay, [3H]cAMP scintillation proximity assay; type: biochemical
Chain of recombinant human PED10A (Q9Y233 whole entry): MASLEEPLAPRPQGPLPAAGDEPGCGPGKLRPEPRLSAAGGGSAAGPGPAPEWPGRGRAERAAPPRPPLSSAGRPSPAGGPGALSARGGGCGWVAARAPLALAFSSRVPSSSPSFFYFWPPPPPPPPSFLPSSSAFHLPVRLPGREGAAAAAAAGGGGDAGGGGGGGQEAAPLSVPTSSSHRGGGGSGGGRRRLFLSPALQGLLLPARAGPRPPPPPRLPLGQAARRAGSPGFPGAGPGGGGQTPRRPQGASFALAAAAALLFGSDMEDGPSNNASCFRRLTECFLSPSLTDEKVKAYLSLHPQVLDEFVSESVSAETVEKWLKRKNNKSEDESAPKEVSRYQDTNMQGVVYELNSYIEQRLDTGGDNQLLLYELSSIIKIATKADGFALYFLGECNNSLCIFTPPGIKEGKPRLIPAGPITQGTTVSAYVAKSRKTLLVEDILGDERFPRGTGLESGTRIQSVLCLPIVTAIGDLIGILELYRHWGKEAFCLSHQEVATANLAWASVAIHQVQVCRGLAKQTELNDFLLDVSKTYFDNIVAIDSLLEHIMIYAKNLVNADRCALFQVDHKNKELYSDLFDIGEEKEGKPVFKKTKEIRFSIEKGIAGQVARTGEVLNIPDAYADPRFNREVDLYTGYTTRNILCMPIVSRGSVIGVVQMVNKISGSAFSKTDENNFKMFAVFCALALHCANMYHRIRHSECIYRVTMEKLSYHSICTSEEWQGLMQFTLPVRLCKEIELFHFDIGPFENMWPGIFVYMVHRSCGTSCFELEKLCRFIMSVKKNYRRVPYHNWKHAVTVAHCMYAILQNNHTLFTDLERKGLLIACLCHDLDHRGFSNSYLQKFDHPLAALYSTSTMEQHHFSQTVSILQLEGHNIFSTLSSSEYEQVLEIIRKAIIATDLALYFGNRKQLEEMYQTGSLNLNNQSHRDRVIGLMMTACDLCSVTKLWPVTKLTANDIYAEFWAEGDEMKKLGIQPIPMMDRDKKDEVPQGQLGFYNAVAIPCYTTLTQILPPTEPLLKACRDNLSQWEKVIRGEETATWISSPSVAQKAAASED

PDE3B = PDE3B (Homo sapiens, UniProt Q13370); assay: PDE3B enzyme assay, [3H]cAMP SPA; type: biochemical
Chain of PDE3B (Q13370 whole entry, species assumed): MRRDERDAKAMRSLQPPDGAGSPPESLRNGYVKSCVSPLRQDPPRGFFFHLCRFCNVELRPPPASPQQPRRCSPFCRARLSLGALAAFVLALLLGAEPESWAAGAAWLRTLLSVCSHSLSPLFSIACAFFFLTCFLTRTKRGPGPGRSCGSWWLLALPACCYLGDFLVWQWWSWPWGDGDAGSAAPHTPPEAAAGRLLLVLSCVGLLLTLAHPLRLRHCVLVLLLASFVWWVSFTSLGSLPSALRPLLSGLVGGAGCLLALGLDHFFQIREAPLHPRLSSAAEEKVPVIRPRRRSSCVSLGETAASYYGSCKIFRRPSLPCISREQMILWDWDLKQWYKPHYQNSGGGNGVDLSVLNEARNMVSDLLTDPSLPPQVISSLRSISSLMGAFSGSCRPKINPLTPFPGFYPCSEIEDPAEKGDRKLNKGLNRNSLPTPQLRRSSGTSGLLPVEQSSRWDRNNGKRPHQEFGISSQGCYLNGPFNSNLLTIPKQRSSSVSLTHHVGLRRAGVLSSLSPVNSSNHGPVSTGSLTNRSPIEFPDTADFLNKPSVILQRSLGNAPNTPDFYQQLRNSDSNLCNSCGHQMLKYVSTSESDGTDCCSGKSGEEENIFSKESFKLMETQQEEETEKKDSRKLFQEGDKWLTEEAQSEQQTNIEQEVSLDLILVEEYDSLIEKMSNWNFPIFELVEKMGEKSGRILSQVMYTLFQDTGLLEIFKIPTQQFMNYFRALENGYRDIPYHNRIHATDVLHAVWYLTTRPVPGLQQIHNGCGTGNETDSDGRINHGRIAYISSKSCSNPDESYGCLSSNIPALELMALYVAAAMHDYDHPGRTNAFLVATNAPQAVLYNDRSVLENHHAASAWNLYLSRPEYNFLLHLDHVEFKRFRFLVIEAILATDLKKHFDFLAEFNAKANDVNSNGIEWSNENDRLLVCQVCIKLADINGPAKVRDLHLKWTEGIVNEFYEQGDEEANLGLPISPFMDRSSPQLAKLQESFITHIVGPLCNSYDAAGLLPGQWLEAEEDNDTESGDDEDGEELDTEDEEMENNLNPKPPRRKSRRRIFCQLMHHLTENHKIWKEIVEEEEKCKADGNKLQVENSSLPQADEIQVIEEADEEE

PDE3A = PDE3A (Homo sapiens, UniProt Q14432); assay: PDE3A enzyme assay, [3H]cAMP SPA; type: biochemical
Chain of PDE3A (Q14432 whole entry, species assumed): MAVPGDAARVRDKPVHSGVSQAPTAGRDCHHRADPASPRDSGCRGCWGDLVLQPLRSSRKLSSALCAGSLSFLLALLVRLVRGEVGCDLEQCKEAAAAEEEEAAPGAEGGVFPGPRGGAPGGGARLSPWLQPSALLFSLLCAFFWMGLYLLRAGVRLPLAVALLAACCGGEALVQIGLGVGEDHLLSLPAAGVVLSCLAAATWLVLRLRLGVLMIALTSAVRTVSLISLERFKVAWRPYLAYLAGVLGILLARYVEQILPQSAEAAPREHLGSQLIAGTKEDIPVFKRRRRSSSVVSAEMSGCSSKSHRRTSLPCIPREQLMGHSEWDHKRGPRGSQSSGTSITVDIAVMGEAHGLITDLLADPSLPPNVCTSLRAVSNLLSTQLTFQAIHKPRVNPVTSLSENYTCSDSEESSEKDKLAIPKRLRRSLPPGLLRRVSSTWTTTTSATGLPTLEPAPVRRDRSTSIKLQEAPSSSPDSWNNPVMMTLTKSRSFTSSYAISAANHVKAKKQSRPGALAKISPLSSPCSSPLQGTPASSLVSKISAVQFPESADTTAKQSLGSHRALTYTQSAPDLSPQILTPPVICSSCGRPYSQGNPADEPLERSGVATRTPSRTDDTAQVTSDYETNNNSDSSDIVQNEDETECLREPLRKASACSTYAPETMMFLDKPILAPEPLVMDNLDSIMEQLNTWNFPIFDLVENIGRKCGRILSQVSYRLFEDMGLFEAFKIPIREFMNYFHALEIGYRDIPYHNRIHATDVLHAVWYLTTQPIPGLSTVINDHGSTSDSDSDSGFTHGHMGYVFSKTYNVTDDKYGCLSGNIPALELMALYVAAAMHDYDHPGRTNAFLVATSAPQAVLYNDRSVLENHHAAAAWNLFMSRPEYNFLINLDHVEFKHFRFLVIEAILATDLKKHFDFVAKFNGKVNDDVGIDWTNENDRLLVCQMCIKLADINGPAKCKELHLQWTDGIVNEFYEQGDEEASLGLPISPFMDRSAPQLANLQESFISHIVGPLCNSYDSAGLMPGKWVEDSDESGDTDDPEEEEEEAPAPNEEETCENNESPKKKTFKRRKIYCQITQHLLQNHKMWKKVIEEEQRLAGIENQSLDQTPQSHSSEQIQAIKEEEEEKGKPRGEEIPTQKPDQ

SMILES: COc1ccc(Cc2nccc3cc(OC)c(OC)cc23)cc1OC [Papaverine, 1-(3,4-dimethoxybenzyl-6,7-dimethoxy)isoquinoline]
hyperactivity induced by phenylcyclohexylpiperidine (PCP) and amphetamine (rats [1]): able to reduce hyperactivity | efficacy in novel object recognition (rat): shown efficacy | in vivo metabolism [2]: rapid in vivo metabolism | catalepsy on its own (rats [3]; compound alone): did not cause catalepsy on its own | effect on cataleptic effect of the D2 receptor antagonist haloperidol (rats [3]; with haloperidol): potentiated the cataleptic effect

increase of PDE10A affinity versus 8b (recombinant human PED10A; 4-fluoroethoxy extended to 4-(2-(2-fluoroethoxy))ethoxy): 2 fold
SMILES: COc1cc2ccnc(Cc3ccc(OCCOCCF)c(OC)c3)c2cc1OC.O=C(O)C(=O)O [8c, 1-(4-(2-(2-Fluoroethoxy)ethoxy)-3-methoxybenzyl)-6,7-dimethoxyisoquinoline oxalate]

IC50 (PDE3B): 3.1 ± 0.27 µM | IC50 (recombinant human PED10A): 0.0488 ± 0.00107 µM | IC50 (PDE3A): 3.98 ± 0.51 µM
SMILES: COc1ccc(Cc2ncnc3cc(OC)c(OC)cc23)cc1 [compound 11, 6,7-Dimethoxy-4-(4-methoxybenzyl)quinazoline oxalate]

SMILES: FC(F)(F)Cn1cc(-c2ccncc2)c(-c2ccc(OCc3ccc4ccccc4n3)cc2)n1 [TP-10]
hyperactivity induced by phenylcyclohexylpiperidine (PCP) and amphetamine (rats [1]): able to reduce hyperactivity

SMILES: COc1cc2ncnc(C3CC[C@H](Oc4cnc5ccccc5n4)C3)c2cc1OC (stereo partly shown) [PQ-10]
hyperactivity induced by phenylcyclohexylpiperidine (PCP) and amphetamine (rats [1]): able to reduce hyperactivity

IC50 (recombinant human PED10A): 0.262 ± 0.0011 µM
SMILES: COc1cc(Cc2nccc3cc(OC)c(OCCF)cc23)cc(OC)c1 [6l, 1-(3,5-Dimethoxybenzyl)-7-(2-fluoroethoxy)-6-methoxyisoquinoline oxalate]

SMILES: Cn1cc(-c2ccncc2)c(-c2ccc(OCc3ccc4ccccc4n3)cc2)n1 [MP-10]
hyperactivity induced by phenylcyclohexylpiperidine (PCP) and amphetamine (rats [1]): able to reduce hyperactivity
